≈ marks a conversion by molar mass, not a printed value.

Data set [1] can be described thus: Tmax in BALB/C mouse at 10 mg/kg, po measured upto 24 hrs by LC-MS analysis. Type of data set: ADME, organism-based. The note with it: in vivo.
A short description of data set [2]: Cmax in BALB/C mouse at 10 mg/kg,po measured upto 24 hrs by LC-MS analysis. The format is ADME, organism-based. Details: route oral, dose 10 mg/kg, time <= 24. The conditions noted are these: in vivo.
The nature of data set [3]: AUClast in BALB/C mouse at 10 mg/kg,po measured upto 24 hrs by LC-MS analysis. Type of data set: ADME, organism-based. Details: route oral, dose 10 mg/kg, time <= 24. The note with it: in vivo.
Data set [4] in a line: Oral bioavailability in BALB/C mouse at 10 mg/kg measured upto 24 hrs by LC-MS analysis. Type of data set: ADME, organism-based. The note with it: in vivo.
Data set [5] can be described thus: Tmax in BALB/C mouse at 1 mg/kg, iv measured upto 24 hrs by LC-MS analysis. The note with it: in vivo. The format is ADME, organism-based.
Data set [6] can be described thus: Cmax in BALB/C mouse at 1 mg/kg, iv measured upto 24 hrs by LC-MS analysis. Details: route intravenous, dose 1 mg/kg, time <= 24. Type of data set: ADME, organism-based. The conditions noted are these: in vivo.
The nature of data set [7]: AUClast in BALB/C mouse at 1 mg/kg, iv measured upto 24 hrs by LC-MS analysis. Type of data set: ADME, organism-based. Details: route intravenous, dose 1 mg/kg, time <= 24. The conditions noted are these: in vivo.
The nature of data set [8]: Volume of distribution at steady state in BALB/C mouse at 1 mg/kg, iv measured upto 24 hrs by LC-MS analysis. Type of data set: ADME, organism-based. The note with it: in vivo, read-out: Vdss.
Data set [9] can be described thus: Lipophilicity, log D of compound at pH 7.4. Type of data set: physicochemical. The conditions noted are these: buffer.
The nature of data set [10]: Solubility of the compound. The format is physicochemical.
The nature of data set [11]: Tmax in Sprague-Dawley rat at 10 mg/kg, po measured upto 24 hrs by LC-MS/MS analysis. Type of data set: ADME, organism-based. The note with it: in vivo.
The nature of data set [12]: Cmax in Sprague-Dawley rat at 10 mg/kg, po measured upto 24 hrs by LC-MS/MS analysis. Type of data set: ADME, organism-based. Details: route oral, dose 10 mg/kg, time <=24. The conditions noted are these: in vivo.
The nature of data set [13]: AUClast in Sprague-Dawley rat at 10 mg/kg, po measured upto 24 hrs by LC-MS/MS analysis. Type of data set: ADME, organism-based. The arrangement: route oral, dose 10 mg/kg, time <=24. The conditions noted are these: in vivo.
Data set [14] is described as follows: Oral bioavailability in Sprague-Dawley rat at 10 mg/kg measured upto 24 hrs by LC-MS/MS analysis. The format is ADME, organism-based. The note with it: in vivo.
The nature of data set [15]: Drug uptake in CB.17 SCID mouse tumor xenografted with OCI-LY10 cells at 3 mg/kg, po once daily for 24 days. Type of data set: ADME, organism-based, Neoplasm. The conditions noted are these: time 24 day, read-out: Drug uptake.
Data set [16] in a line: Drug uptake in CB.17 SCID mouse tumor xenografted with OCI-LY10 cells at 1 mg/kg, po once daily for 24 days. Type of data set: ADME, organism-based, Neoplasm. The conditions noted are these: time 24 day, read-out: Drug uptake.
Data set [17] can be described thus: Drug uptake in CB.17 SCID mouse tumor xenografted with OCI-LY10 cells at 10 mg/kg, po once daily for 24 days. Type of data set: ADME, organism-based, Neoplasm. The conditions noted are these: time 24 day, read-out: Drug uptake.
Data set [18] in a line: Drug uptake in CB.17 SCID mouse tumor xenografted with OCI-LY10 cells at 30 mg/kg, po once daily for 24 days. Type of data set: ADME, organism-based, Neoplasm. The conditions noted are these: time 24 day, read-out: Drug uptake.
Data set [19] can be described thus: Plasma concentration in CB.17 SCID mouse xenografted with OCI-LY10 cells at 3 mg/kg, po once daily for 24 days. Type of data set: ADME, organism-based. The note with it: time 24 day.
The nature of data set [20]: Plasma concentration in CB.17 SCID mouse xenografted with OCI-LY10 cells at 1 mg/kg, po once daily for 24 days. Type of data set: ADME, organism-based. The conditions noted are these: time 24 day.
Data set [21] in a line: Plasma concentration in CB.17 SCID mouse xenografted with OCI-LY10 cells at 10 mg/kg, po once daily for 24 days. Type of data set: ADME, organism-based. The note with it: time 24 day.
The nature of data set [22]: Plasma concentration in CB.17 SCID mouse xenografted with OCI-LY10 cells at 30 mg/kg, po once daily for 24 days. The format is ADME, organism-based. The conditions noted are these: time 24 day.
Data set [23] is described as follows: Drug uptake in CB.17 SCID mouse tumor xenografted with TMD-8 cells at 3 mg/kg, po once daily for 19 days. The note with it: time 19 day, read-out: Drug uptake. The format is ADME, organism-based, Neoplasm.
A short description of data set [24]: Drug uptake in CB.17 SCID mouse tumor xenografted with TMD-8 cells at 1 mg/kg, po once daily for 19 days. Type of data set: ADME, organism-based, Neoplasm. The conditions noted are these: time 19 day, read-out: Drug uptake.
Data set [25] is described as follows: Drug uptake in CB.17 SCID mouse tumor xenografted with TMD-8 cells at 10 mg/kg, po once daily for 19 days. Type of data set: ADME, organism-based, Neoplasm. The note with it: time 19 day, read-out: Drug uptake.
Data set [26] in a line: Drug uptake in CB.17 SCID mouse xenografted with TMD-8 cells tumor at 30 mg/kg, po once daily for 19 days. Type of data set: ADME, organism-based, Neoplasm. The note with it: time 19 day, read-out: Drug uptake.
Data set [27] in a line: Plasma concentration in CB.17 SCID mouse xenografted with TMD-8 cells at 3 mg/kg, po once daily for 19 days. The format is ADME, organism-based. The note with it: time 19 day.
A short description of data set [28]: Plasma concentration in CB.17 SCID mouse xenografted with TMD-8 cells at 1 mg/kg, po once daily for 19 days. Type of data set: ADME, organism-based. The note with it: time 19 day.
Data set [29] can be described thus: Plasma concentration in CB.17 SCID mouse xenografted with TMD-8 cells at 10 mg/kg, po once daily for 19 days. Type of data set: ADME, organism-based. The conditions noted are these: time 19 day.
A short description of data set [30]: Plasma concentration in CB.17 SCID mouse xenografted with TMD-8 cells at 30 mg/kg, po once daily for 19 days. Type of data set: ADME, organism-based. The note with it: time 19 day.
Data set [31] can be described thus: Drug uptake in CB.17 SCID mouse tumor xenografted with SUDHL-6 cells assessed as effect on body weight at 5 mg/kg, po once daily for 15 days. Type of data set: ADME, organism-based, Neoplasm. The conditions noted are these: time 15 day, read-out: Drug uptake.
Data set [32] in a line: Plasma concentration in CB.17 SCID mouse tumor xenografted with SUDHL-6 cells assessed as effect on body weight at 5 mg/kg, po once daily for 15 days. Type of data set: ADME, organism-based. The note with it: time 15 day.
A short description of data set [33]: Free drug concentration in CB.17 SCID mouse xenografted with OCI-LY10 cells at 30 mg/kg, po once daily for 24 days. Type of data set: ADME, organism-based. The conditions noted are these: in vivo, 576 h, time 24 day.
Data set [34] can be described thus: Free drug concentration in CB.17 SCID mouse xenografted with TMD-8 cells at 30 mg/kg, po once daily for 19 days. Type of data set: ADME, organism-based. The note with it: in vivo, 456 h, time 19 day.
The nature of data set [35]: Volume of distribution at steady state in Beagle dog at 1 mg/kg, iv measured upto 24 hrs by LC-MS/MS analysis. The format is ADME, organism-based, Canis lupus familiaris. The conditions noted are these: beagle, in vivo, read-out: Vdss.
A short description of data set [36]: Tmax in Sprague-Dawley rat at 1 mg/kg, iv measured upto 24 hrs by LC-MS/MS analysis. The format is ADME, organism-based. The conditions noted are these: in vivo.
Data set [37] is described as follows: Cmax in Sprague-Dawley rat at 1 mg/kg, iv measured upto 24 hrs by LC-MS/MS analysis. Type of data set: ADME, organism-based. The note with it: in vivo. The arrangement: route intravenous, dose 1 mg/kg, time <=24.
Data set [38] can be described thus: AUClast in Sprague-Dawley rat at 1 mg/kg, iv measured upto 24 hrs by LC-MS/MS analysis. The format is ADME, organism-based. Details: route intravenous, dose 1 mg/kg, time <=24. The note with it: in vivo.
The nature of data set [39]: Volume of distribution at steady state in Sprague-Dawley rat at 1 mg/kg, iv measured upto 24 hrs by LC-MS/MS analysis. The format is ADME, organism-based. The conditions noted are these: in vivo, read-out: Vdss.

Consider `C[C@H](Nc1nc(N)nc(N)c1C#N)c1cc(=O)n2cc(F)ccc2c1-c1cc(F)cc(F)c1`, for which the time to peak (Tmax) in data set [1] was determined as 30 min; in data set [5] it was 4.8 min. Further, the maximum concentration (Cmax) in [2] worked out at 4700 nM; in data set [6], 1100 nM. Also, the figures for the area under the curve AUC(0-t) at 24 h in [3] and in [7] were 12 µM·h and 2 µM·h, respectively. Further, the bioavailability in [4] was determined as 60%. For the same compound, in data set [8], the Vd worked out at 1.9 L/kg. In data set [9], this compound had a pH-dependent lipophilicity (logD) of 1.88. The compound also gave a solubility in [10] of 368 µM (≈ 166 µg/mL).

As to `C[C@H](Nc1nc(N)nc(N)c1C#N)c1c(-c2ccccc2)c(=O)n2cc(F)ccc2c1-c1ccc(F)cc1`, the Tmax in [1] is 60 min; in data set [5], 4.8 min; in data set [11] it was 120 min; in data set [36], 4.8 min. The Cmax in data set [2] was 7500 nM; in data set [6], 2300 nM; in [12] it was 4800 nM; in data set [37], 1700 nM. In addition, the exposure AUC(0-t) at 24 h in data set [3] was 22 µM·h; in data set [7] it was 5.7 µM·h; in data set [13] it was 36 µM·h; in [38], 11 µM·h. The bioavailability in data set [4] is 39%; in data set [14], 33%. Besides, the Vd in [8] was determined as 0.7 L/kg; in data set [35], 0.4 L/kg; in data set [39] it was 1 L/kg. Moreover, in [9], the logD was found to be 2.38. The amount in solution in data set [10] (solubility) came to 68.5 µM (≈ 34.9 µg/mL). Besides, the concentration at 576 h in [15] was found to be 380 nM; in data set [16], 130 nM; in data set [17], 960 nM; in [18], 3250 nM; in data set [19], 710 nM; in data set [20], 180 nM. Besides, the concentration at 576 h is 1720 nM in data set [21] and 5220 nM in data set [22]. In addition, the concentration at 456 h in [23] was found to be 630 nM; in data set [24], 170 nM; in [25], 1650 nM; in [26], 4080 nM; in data set [27], 700 nM; in [28], 210 nM. Further, the concentration at 456 h in data set [29] was determined as 2670 nM; in [30], 5500 nM. Further, the concentration at 360 h in [31] was 200 nM; in data set [32], 380 nM. The “Drug uptake(free)” value was 157.6 nM in data set [33] and 166.1 nM in data set [34].

On to `Cc1c([C@H](C)Nc2nc(N)nc(N)c2C#N)c(-c2ccccc2)c(=O)n2cc(F)ccc12`, for which the values for the Tmax in [1] and in [5] were 30 min and 4.8 min, respectively. The figures for the Cmax in [2] and in data set [6] were 2100 nM and 1300 nM, respectively. In addition, the exposure AUC(0-t) at 24 h in data set [3] was found to be 2.4 µM·h; in [7] it was 0.8 µM·h. The compound further came in with a bioavailability in data set [4] of 30%. Also, the Vd in data set [8] came to 1.7 L/kg.

As to `C[C@H](Nc1nc(N)nc(N)c1C#N)c1cc2ccc(F)cn2c(=O)c1-c1ccccc1`, the figures for the Tmax in data set [1] and in [5] were 30 min and 4.8 min, respectively. Also, the maximum concentration (Cmax) in data set [2] was found to be 2600 nM; in data set [6], 2300 nM. For the same compound, the AUC(0-t) at 24 h in data set [3] was determined as 3.5 µM·h; in data set [7], 1.6 µM·h. Further, the bioavailability in [4] was 22%. In addition, in [8], the Vd was determined as 1.3 L/kg. This compound also registered a pH-dependent lipophilicity (logD) in [9] of 1.26. The solubility in data set [10] was 691 µM (≈ 287 µg/mL).

The values are drawn from ChEMBL document CHEMBL4715876 (J Med Chem, 2020).
